Data: PubChem BioAssay (NCI)
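The compound was tested at five concentrations on cells cultured in 96-well plates, with a 48-hour exposure period. TGI: concentration producing complete growth inhibition.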

Key:
Assay in all cases: NCI tumour cell line growth inhibition, 48 h
[1] = tested on: 786-0 renal
[2] = tested on: A498 renal
[3] = tested on: A549 NSCLC
[4] = tested on: ACHN renal
[5] = tested on: CAKI-1 renal
[6] = tested on: CCRF-CEM leukemia
[7] = tested on: COLO 205 colon
[8] = tested on: DLD-1 colon
[9] = tested on: DMS 114 small cell lung
[10] = tested on: DMS 273 small cell lung
[11] = tested on: EKVX NSCLC
[12] = tested on: HCC-2998 colon
[13] = tested on: HCT-116 colon
[14] = tested on: HCT-15 colon
[15] = tested on: HL-60(TB) leukemia
[16] = tested on: HOP-18 NSCLC
[17] = tested on: HOP-62 NSCLC
[18] = tested on: HOP-92 NSCLC
[19] = tested on: HT29 colon
[20] = tested on: IGROV1 ovarian
[21] = tested on: K-562 leukemia
[22] = tested on: KM12 colon
[23] = tested on: KM20L2 colon
[24] = tested on: LOX IMVI melanoma
[25] = tested on: LXFL 529 NSCLC
[26] = tested on: M14 melanoma
[27] = tested on: M19-MEL melanoma
[28] = tested on: MALME-3M melanoma
[29] = tested on: MOLT-4 leukemia
[30] = tested on: NCI-H226 lung
[31] = tested on: NCI-H23 lung
[32] = tested on: NCI-H460 lung
[33] = tested on: NCI-H522 lung
[34] = tested on: OVCAR-3 ovarian
[35] = tested on: OVCAR-4 ovarian
[36] = tested on: OVCAR-5 ovarian
[37] = tested on: OVCAR-8 ovarian
[38] = tested on: RPMI-8226 leukemia
[39] = tested on: RXF 393 renal
[40] = tested on: RXF-631 renal
[41] = tested on: SF-268 CNS
[42] = tested on: SF-295 CNS
[43] = tested on: SF-539 CNS
[44] = tested on: SK-MEL-2 melanoma
[45] = tested on: SK-MEL-28 melanoma
[46] = tested on: SK-MEL-5 melanoma
[47] = tested on: SK-OV-3 ovarian
[48] = tested on: SN12C renal
[49] = tested on: SNB-19 CNS
[50] = tested on: SNB-75 CNS
[51] = tested on: SNB-78 CNS
[52] = tested on: SR leukemia
[53] = tested on: SW-620 colon
[54] = tested on: TK-10 renal
[55] = tested on: U251 CNS
[56] = tested on: UACC-257 melanoma
[57] = tested on: UACC-62 melanoma
[58] = tested on: UO-31 renal
[59] = tested on: XF 498 CNS
[60] = tested on: MCF7 breast
[61] = tested on: NCI/ADR-RES ovarian
[62] = tested on: P388 leukemia
[63] = tested on: P388/ADR leukemia
[64] = tested on: SN12K1 renal

Measured: TGI

CC(C)C(=O)Nc1nc2nc[nH]c2c(=O)[nH]1
not listed: [60] | [61] | [62] | [63] | [64]
> 100 µM: all other assays above

COCOc1ccc(OC)cc1
not listed: [1] | [4] | [9] | [25] | [26] | [33] | [40] | [52] | [54]
> 100 µM: all other assays above

COCCN1C2=CCCCC2=Nc2c1nc(N)[nH]c2=O
not listed: [35] | [44] | [53] | [60] | [61] | [62] | [63] | [64]
> 100 µM: all other assays above
